According to US20080214555A1 (priority 2007, published 2008):
Where two headings read alike, the source gives them in different places.

Legend:
[1] = tested on: patients with non-ST elevation acute coronary syndrome; assay: MERLIN-TIMI 36: HbA1c and hyperglycemia; type: in vivo, human
Text: HbA1c data are reported as least-square means. Patients categorized as “diabetic” had been diagnosed as diabetic before or at the time of randomization. Patients categorized as “no diabetes” had not been diagnosed as diabetic before or at the time of randomization. Some patients characterized as “no diabetes” may have been diagnosed as “diabetic” during the trial; however, these patients are still listed in the “no diabetes” category in FIG. 4B.

[2] = tested on: patients with non-ST elevation acute coronary syndrome
[3] = tested on: patients with non-ST elevation acute coronary syndrome; assay: MERLIN-TIMI 36: Seattle Angina Questionnaire scores at 4 months; type: in vivo, human; details: ITT
Text: The MERLIN-TIMI 36 secondary efficacy endpoint (ITT) Seattle Angina Questionnaire scores at 4 months for anginal frequency scale are shown in Table 16 below, and scores for physical limitation scale are shown in Table 17 below.

[4] = Baseline (in-hospital visit prior to randomization), all patients dosed, n = 3268
[5] = Diabetes at enrollment, n = 1098, Baseline
[6] = Diabetes at enrollment, n = 1098, Final Visit
[7] = Diabetes at enrollment, n = 1098, Month 4
[8] = Diabetes at enrollment, n = 1098, Month 8
[9] = Diabetes at enrollment, n = 1098, Month 16
[10] = Final Visit, all patients dosed, n = 3268
[11] = Month 4, all patients dosed, n = 3268
[12] = Month 8, all patients dosed, n = 3268
[13] = Month 16, all patients dosed, n = 3268
[14] = No Diabetes at enrollment, n = 2170, Baseline
[15] = No Diabetes at enrollment, n = 2170, Final Visit
[16] = No Diabetes at enrollment, n = 2170, Month 4
[17] = No Diabetes at enrollment, n = 2170, Month 8
[18] = No Diabetes at enrollment, n = 2170, Month 16
[19] = at 4 months, 4306 patients with serial measurements
[20] = patients with DM treated with ranolazine
[21] = 30 days, all patients dosed, n = 3268
[22] = 60 days, all patients dosed, n = 3268
[23] = 360 days, all patients dosed, n = 3268
[24] = 540 days, all patients dosed, n = 3268
[25] = endpoint death or CV hospitalization, all patients dosed, n = 3268
[26] = ranolazine vs placebo, all patients dosed

**Q.** Which “Patients with HbA1C ≧7%, number” value [1, 4] does the source give for `COc1ccccc1OCC(O)CN1CCN(CC(=O)Nc2c(C)cccc2C)CC1` (racemic) [Ranolazine, (±)-N-(2,6-dimethylphenyl)-4-[2-hydroxy-3-(2-methoxyphenoxy)-propyl]-1-piperazineacetamide] here?
**A.** 655

**Q.** What about the “Patients with HbA1C ≧7%, proportion” value [1, 4] of the same compound?
**A.** (24%)

**Q.** And the “Patients with HbA1C ≧7%, number” value [1, 5]?
**A.** 542

**Q.** And the “Patients with HbA1C ≧7%, proportion” value [1, 5]?
**A.** (57%)

**Q.** And the “Patients with HbA1C ≧7%, number” value [1, 6]?
**A.** 324

**Q.** What about the “Patients with HbA1C ≧7%, proportion” value [1, 6] of the same compound?
**A.** (42%)

**Q.** And the “Patients with HbA1C ≧7%, number” value [1, 7]?
**A.** 326

**Q.** And the “Patients with HbA1C ≧7%, proportion” value [1, 7]?
**A.** (41%)

**Q.** And the “Patients with HbA1C ≧7%, number” value [1, 8]?
**A.** 263

**Q.** And the “Patients with HbA1C ≧7%, proportion” value [1, 8]?
**A.** (44%)

**Q.** And the “Patients with HbA1C ≧7%, number” value [1, 9]?
**A.** 63

**Q.** And the “Patients with HbA1C ≧7%, proportion” value [1, 9]?
**A.** (48%)

**Q.** What about the “Patients with HbA1C ≧7%, number” value [1, 10] of the same compound?
**A.** 416

**Q.** And the “Patients with HbA1C ≧7%, proportion” value [1, 10]?
**A.** (17%)

**Q.** What about the “Patients with HbA1C ≧7%, number” value [1, 11] of the same compound?
**A.** 404

**Q.** And the “Patients with HbA1C ≧7%, proportion” value [1, 11]?
**A.** (17%)

**Q.** What about the “Patients with HbA1C ≧7%, number” value [1, 12] of the same compound?
**A.** 335

**Q.** And the “Patients with HbA1C ≧7%, proportion” value [1, 12]?
**A.** (18%)

**Q.** What about the “Patients with HbA1C ≧7%, number” value [1, 13] of the same compound?
**A.** 84

**Q.** What about the “Patients with HbA1C ≧7%, proportion” value [1, 13] of the same compound?
**A.** (20%)

**Q.** What about the “Patients with HbA1C ≧7%, number” value [1, 14] of the same compound?
**A.** 113

**Q.** And the “Patients with HbA1C ≧7%, proportion” value [1, 14]?
**A.** (6%)

**Q.** What about the “Patients with HbA1C ≧7%, number” value [1, 15] of the same compound?
**A.** 92

**Q.** What about the “Patients with HbA1C ≧7%, proportion” value [1, 15] of the same compound?
**A.** (6%)

**Q.** And the “Patients with HbA1C ≧7%, number” value [1, 16]?
**A.** 78

**Q.** And the “Patients with HbA1C ≧7%, proportion” value [1, 16]?
**A.** (5%)

**Q.** What about the “Patients with HbA1C ≧7%, number” value [1, 17] of the same compound?
**A.** 72

**Q.** And the “Patients with HbA1C ≧7%, proportion” value [1, 17]?
**A.** (6%)

**Q.** And the “Patients with HbA1C ≧7%, number” value [1, 18]?
**A.** 21

**Q.** And the “Patients with HbA1C ≧7%, proportion” value [1, 18]?
**A.** (7%)

**Q.** And the “HbA1c (least-square mean)” value [1, 19]?
**A.** 5.9%

**Q.** What about the “HbA1c change from baseline” value [1, 19] of the same compound?
**A.** −0.30%

**Q.** What about the “Worsening of hyperglycemia (>1% increase in HbA1c)” value ([1]; diabetic patients, by 1 year of follow-up) of the same compound?
**A.** 14.2%

**Q.** What about the “HR, worsening of hyperglycemia” value ([1]; diabetic patients, ranolazine vs placebo, 95% CI 0.51, 0.77) of the same compound?
**A.** 0.63

**Q.** And the Reported hypoglycemia ([1]; patients with DM)?
**A.** 3%

**Q.** And the HbA1c after decline [1, 20]?
**A.** 6.8%

**Q.** What about the “HbA1c Δ” value [1, 20] of the same compound?
**A.** −0.64%

**Q.** And the HbA1c before decline ([1]; patients with DM treated with ranolazine, starting value)?
**A.** 7.2%

**Q.** What about the “Patients achieving an HbA1c <7%” value ([1]; patients with DM, at 4 months) of the same compound?
**A.** 59%

**Q.** What about the “Incidence of new fasting glucose >110 mg/dL or HbA1c ≧6%” value ([1]; patients without DM at randomization or baseline (fasting glucose <100 mg/dL and HbA1c <6%)) of the same compound?
**A.** 31.8%

**Q.** What about the “HR, new fasting glucose >110 mg/dL or HbA1c ≧6%” value ([1]; patients without DM, ranolazine vs placebo, 95% CI 0.53, 0.88) of the same compound?
**A.** 0.68

**Q.** What about the “Incidence (Kaplan-Meier estimate) of death from any cause” value (“Incidence … from any cause” for short) [2, 21] of the same compound?
**A.** 1.8%

**Q.** What about the “Incidence (Kaplan-Meier estimate) of death or CV hospitalization” value (“Incidence … of death or CV hospitalization” for short) [2, 21] of the same compound?
**A.** 9.2%

**Q.** And the “Incidence … from any cause” value [2, 22]?
**A.** 2.2%

**Q.** And the “Incidence … of death or CV hospitalization” value [2, 22]?
**A.** 15.0%

**Q.** And the “Incidence … from any cause” value ([2]; 180 days, all patients dosed, n = 3268)?
**A.** 3.4%

**Q.** What about the “Incidence … from any cause” value [2, 23] of the same compound?
**A.** 5.3%

**Q.** What about the “Incidence … of death or CV hospitalization” value [2, 23] of the same compound?
**A.** 32.8%

**Q.** What about the “Incidence … from any cause” value [2, 24] of the same compound?
**A.** 7.0%

**Q.** And the “Incidence … of death or CV hospitalization” value [2, 24]?
**A.** 37.6%

**Q.** What about the Symptomatic documented arrhythmias ([2]; Example 7) of the same compound?
**A.** 3.0%

**Q.** And the “Clinically reported sudden cardiac death, number” value ([2]; Example 8)?
**A.** 56

**Q.** What about the “Pts with events: death from any cause (safety endpoint)” value ([2]; all patients dosed, n = 3268) of the same compound?
**A.** 172

**Q.** What about the “Pts with events: first occurrence of death or CV hospitalization (safety endpoint)” value ([2]; all patients dosed, n = 3268) of the same compound?
**A.** 1037

**Q.** What about the “Symptomatic documented arrhythmias: Bradyarrhythmias, %” value ([2]; all patients dosed, n = 3268) of the same compound?
**A.** 1.0%

**Q.** And the “Symptomatic documented arrhythmias: Bradyarrhythmias, number” value ([2]; all patients dosed, n = 3268)?
**A.** 34

**Q.** And the “Symptomatic documented arrhythmias: Cardiac arrest NOS, %” value ([2]; all patients dosed, n = 3268)?
**A.** 0.3%

**Q.** What about the “Symptomatic documented arrhythmias: Cardiac arrest NOS, number” value ([2]; all patients dosed, n = 3268) of the same compound?
**A.** 10

**Q.** What about the “Symptomatic documented arrhythmias: Pts. with Arrhythmias - Overall, %” value ([2]; all patients dosed, n = 3268) of the same compound?
**A.** 3.0%

**Q.** What about the “Symptomatic documented arrhythmias: Pts. with Arrhythmias - Overall, number” value ([2]; all patients dosed, n = 3268) of the same compound?
**A.** 99

**Q.** What about the “Symptomatic documented arrhythmias: Supraventricular arrhythmias, %” value ([2]; all patients dosed, n = 3268) of the same compound?
**A.** 1.2%

**Q.** And the “Symptomatic documented arrhythmias: Supraventricular arrhythmias, number” value ([2]; all patients dosed, n = 3268)?
**A.** 38

**Q.** And the “Symptomatic documented arrhythmias: Ventricular arrhythmias, %” value ([2]; all patients dosed, n = 3268)?
**A.** 0.7%

**Q.** And the “Symptomatic documented arrhythmias: Ventricular arrhythmias, number” value ([2]; all patients dosed, n = 3268)?
**A.** 22

**Q.** What about the “Endpoint-defining events: CV hospitalization, % of pts with events” value [2, 25] of the same compound?
**A.** 89.3%

**Q.** What about the “Endpoint-defining events: CV hospitalization, number” value [2, 25] of the same compound?
**A.** 926

**Q.** What about the “Endpoint-defining events: Death, % of pts with events” value [2, 25] of the same compound?
**A.** 10.7%

**Q.** What about the “Endpoint-defining events: Death, number” value [2, 25] of the same compound?
**A.** 111

**Q.** And the “HR, total mortality” value ([2]; ranolazine vs placebo, 95% CI 0.80-1.22)?
**A.** 0.99

**Q.** And the “Relative risk (SE), death from any cause” value [2, 26]?
**A.** 0.988 (0.11)

**Q.** What about the “Relative risk (SE), death or CV hospitalization” value [2, 26] of the same compound?
**A.** 0.981 (0.04)

**Q.** What about the Symptomatic documented arrhythmias ([2]; women) of the same compound?
**A.** 2.6%

**Q.** What about the “Seattle Angina Questionnaire physical limitation scale score, 25th percentile-75th percentile” value ([3]; N 2339) of the same compound?
**A.** 55.6-94.4

**Q.** And the “Seattle Angina Questionnaire physical limitation scale score, Mean (SEM)” value ([3]; N 2339)?
**A.** 72.8 (0.5)

**Q.** What about the “Seattle Angina Questionnaire physical limitation scale score, Median” value ([3]; N 2339) of the same compound?
**A.** 77.8

**Q.** And the “Seattle Angina Questionnaire physical limitation scale score, Min-Max” value ([3]; N 2339)?
**A.** 0-100

**Q.** And the “Seattle Angina Questionnaire anginal frequency scale score, 25th percentile-75th percentile” value ([3]; N 2558)?
**A.** 80-100

**Q.** What about the “Seattle Angina Questionnaire anginal frequency scale score, Mean (SEM)” value ([3]; N 2558) of the same compound?
**A.** 84.3 (0.4)

**Q.** What about the “Seattle Angina Questionnaire anginal frequency scale score, Median” value ([3]; N 2558) of the same compound?
**A.** 100

**Q.** What about the “Seattle Angina Questionnaire anginal frequency scale score, Min-Max” value ([3]; N 2558) of the same compound?
**A.** 0-100
